{"source": "patent US6821985B2", "about": "“Pharmaceutical combinations for the treatment of stroke and traumatic brain injury” (Pfizer, Inc., priority 2000, dated 2004)", "key": {"[1]": {"target": "T1, NR2B subunit containing NMDA receptor (Rattus norvegicus, UniProt P35439+Q00960)", "T1 construct": "(+)-(1S, 2S)-1-(4-hydroxy-phenyl)-2-(4-hydroxy-4-phenylpiperidino)-1-propanol from rat forebrain membranes; from tissue; host or cells: forebrain membranes of adult male CD rats", "T1 sequence (Q00960 27-1482, other chains not shown)": "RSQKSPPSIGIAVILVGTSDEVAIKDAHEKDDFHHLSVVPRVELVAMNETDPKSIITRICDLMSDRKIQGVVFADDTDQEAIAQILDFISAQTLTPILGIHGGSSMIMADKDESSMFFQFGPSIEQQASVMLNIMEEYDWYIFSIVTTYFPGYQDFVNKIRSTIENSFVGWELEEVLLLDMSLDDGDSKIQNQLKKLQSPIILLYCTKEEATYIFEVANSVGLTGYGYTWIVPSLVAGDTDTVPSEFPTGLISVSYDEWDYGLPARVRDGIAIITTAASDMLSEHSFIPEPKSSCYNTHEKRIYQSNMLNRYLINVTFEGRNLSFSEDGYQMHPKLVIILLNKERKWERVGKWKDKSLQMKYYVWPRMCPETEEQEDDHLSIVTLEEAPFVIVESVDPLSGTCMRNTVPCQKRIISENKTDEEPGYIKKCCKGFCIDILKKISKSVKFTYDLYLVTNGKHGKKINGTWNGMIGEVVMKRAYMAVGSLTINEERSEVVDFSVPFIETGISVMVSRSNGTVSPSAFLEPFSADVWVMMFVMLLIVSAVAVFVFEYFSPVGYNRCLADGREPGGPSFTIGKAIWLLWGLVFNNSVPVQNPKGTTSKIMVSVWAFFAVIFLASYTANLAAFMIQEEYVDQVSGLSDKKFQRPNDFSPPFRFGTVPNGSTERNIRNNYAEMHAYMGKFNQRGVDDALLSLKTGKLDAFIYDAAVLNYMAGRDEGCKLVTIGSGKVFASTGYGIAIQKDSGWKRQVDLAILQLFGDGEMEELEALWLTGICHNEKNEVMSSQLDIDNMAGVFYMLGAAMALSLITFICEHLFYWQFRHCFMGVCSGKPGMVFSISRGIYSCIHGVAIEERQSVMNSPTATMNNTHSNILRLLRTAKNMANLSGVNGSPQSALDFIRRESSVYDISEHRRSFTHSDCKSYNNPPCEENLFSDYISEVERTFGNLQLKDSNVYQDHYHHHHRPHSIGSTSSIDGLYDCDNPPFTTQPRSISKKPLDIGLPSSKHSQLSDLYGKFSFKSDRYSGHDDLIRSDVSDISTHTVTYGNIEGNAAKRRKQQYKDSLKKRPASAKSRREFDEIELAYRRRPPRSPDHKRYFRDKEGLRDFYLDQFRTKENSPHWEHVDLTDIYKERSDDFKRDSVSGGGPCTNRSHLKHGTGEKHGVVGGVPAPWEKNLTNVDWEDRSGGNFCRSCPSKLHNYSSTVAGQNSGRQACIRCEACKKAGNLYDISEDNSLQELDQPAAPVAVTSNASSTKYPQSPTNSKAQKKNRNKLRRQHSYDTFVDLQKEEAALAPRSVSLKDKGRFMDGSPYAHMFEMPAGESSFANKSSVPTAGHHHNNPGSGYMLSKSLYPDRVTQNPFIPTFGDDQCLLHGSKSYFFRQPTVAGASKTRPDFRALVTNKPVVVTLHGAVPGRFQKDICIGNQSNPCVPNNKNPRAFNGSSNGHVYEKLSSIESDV", "assay": "Displacement of specific binding of racemic [3H](+)-(1S,2S)-1-(4-hydroxy-phenyl)-2-(4-hydroxy-4-phenylpiperidino)-1-propanol ([3H]CP-101,606) from rat forebrain membranes", "settings": "ratio of the IC50s; greater than three is considered selective for NR2B over α1", "experimental": "This affinity is assessed in a radioligand binding assay as described later in this application.\nThis affinity is assessed in a radioligand binding assay as described below.\nThe binding of racemic [^3H] […] Forebrains of adult male CD rats are homogenized in 0.32M sucrose at 4° C. The crude nuclear pellet is removed by centrifugation at 1,000×g for 10 minutes, and the supernatant centrifuged at 17,000×g for 25 minutes. The resulting pellet is resuspended in 5 mM Tris acetate pH 7.4 at 4° C. for 10 minutes to lyse cellular particles and again centrifuged at 17,000×g. The resulting pellet is washed twice in Tris acetate, resuspended at 10 mg protein/ml and stored at −20° C. until use.\nFor binding assays, membranes are thawed, homogenized, and diluted to 0.5 mg protein/ml with 50 mM Tris HCl, pH 7.4. Compounds under study are added at various concentrations followed by racemic [^3H] […] Following incubation for 20 min at 30° C. in a shaking water bath, samples are filtered onto Whatman GFB glass fiber filters using a MB-48R Cell Harvester (Brandel Research and Development Laboratories, Gaithersburg Md.). Filters are washed for 10 s with ice cold Tris HCl buffer and the radioactivity trapped on the filter quantified by liquid scintillation spectroscopy. Nonspecific binding is determined in parallel incubations containing 100 μM racemic (+)-(1 S, 2S)-1-(4-hydroxy-phenyl)-2-(4-hydroxy-4-phenylpiperidino)-1-propanol. Specific binding is defined as total binding minus nonspecific binding.\nAffinity for the NR^2B subunit containing NMDA receptor is measured as the IC50 for displacement of specific binding of racemic [^3H] […] Affinity for the α1-adrengergic receptor is defined as the IC50 for displacement of specific binding of racemic [^3H]prazosin from rat brain membranes, measured as described by Greengrass and Bremner (Binding Characteristics of [3H]prazosin to Rat Brain α-Adrenergic Receptors, European Journal of Pharmacology, 55, 323-326, (1979))."}, "α1-adrenergic receptor": {"target": "α1-adrenergic receptor", "assay": "Displacement of specific binding of [3H]prazosin from rat forebrain membranes", "settings": "IC50 for displacement of specific binding, 0.2 nM radioligand", "experimental": "Compounds of the formula I have selectivity for NR^2B subunit-containing NMDA receptors over α1-adrengergic receptors. Affinity for the NR^2B subunit containing NMDA receptor is measured as the IC50 for displacement of specific binding of racemic [^3H] (+)-(1S, 2S)-1-(4-hydroxy-phenyl)-2-(4-hydroxy-4-phenylpiperidino)-1-propanol from rat forebrain membranes (described above). Affinity for the α1-adrengergic receptor is defined as the IC50 for displacement of specific binding of racemic [^3H]prazosin from rat brain membranes, measured as described by Greengrass and Bremner (Binding Characteristics of [3H]prazosin to Rat Brain α-Adrenergic Receptors, European Journal of Pharmacology, 55, 323-326, (1979)).\nForebrains of adult male Sprague Dawley rats are homogenized in 20 volumes of ice cold 50 mM Tris/HCl buffer (pH 7.7). The homogenate is centrifuged at 50,000×g for 10 minutes at 4° C. The pellet is resuspended and centrifuged under identical conditions and the final pellet is resuspended in 80 volumes of 50 mM Tris/HCl (pH 8.0) at 4° C.\nFor binding assays, compounds under study are added at various concentrations to 500 μg membrane protein in 1 ml of 50 mM Tris/HCl buffer, followed by [^3H]prazosin (Amersham, specific activity 33 Ci/mmol, 0.2 nM final concentration). Following incubation for 30 min at 25° C. in a shaking water bath, samples are filtered onto Whatman GFB glass fiber filters using a MB-48R Cell Harvester (Brandel Research and Development Laboratories, Gaithersburg Md.). Filters are washed three times for 10 s with ice cold Tris HCl buffer and the radioactivity trapped on the filter quantified by liquid scintillation spectroscopy. Nonspecific binding is determined in parallel incubations containing 100 nM prazosin. Specific binding is defined as total binding minus nonspecific binding."}}}
{"smiles": "COc1cc([C@H](O)[C@H](C)N2CCC(O)(c3ccccc3)CC2)ccc1O", "note": "[(1S, 2S)-1-(4-hydroxy-3-methoxyphenyl)-2-(4-hydroxy-4-phenylpiperidino)-1-propanol]", "values": [{"measurement": "Ratio [^3H]Prazosin/[^3H] (+)-(1S, 2S)-1-(4-hydroxy-phenyl)-2-(4-hydroxy-4-phenylpiperidino)-1-propanol", "setting": "[1]", "result": 86}, {"measurement": "IC50", "setting": "α1-adrenergic receptor", "result": 8.1, "unit": "µM"}]}
{"smiles": "OC(CN1CCC(Cc2ccc(F)cc2)CC1)c1ccc(Cl)cc1", "note": "(centres unmarked) [Eliprodil, reference compound]", "values": [{"measurement": "Ratio [^3H]Prazosin/[^3H] (+)-(1S, 2S)-1-(4-hydroxy-phenyl)-2-(4-hydroxy-4-phenylpiperidino)-1-propanol", "setting": "[1]", "result": 2.2}, {"measurement": "IC50", "setting": "α1-adrenergic receptor", "result": "0.98 ± 0.22", "unit": "µM"}]}
{"smiles": "C[C@@H]([C@@H](O)c1ccc(O)cc1)N1CCC(O)(c2ccccc2)CC1", "note": "[(+)-(1S, 2S)-1-(4-hydroxy-phenyl)-2-(4-hydroxy-4-phenylpiperidino)-1-propanol]", "values": [{"measurement": "IC50", "setting": "α1-adrenergic receptor", "result": 19.5, "unit": "µM"}]}
{"smiles": "Oc1ccc2c(c1)OC[C@@H](N1CCC(O)(c3ccc(F)cc3)CC1)[C@H]2O", "note": "[(3R, 4S)-3-(4-(4-fluorophenyl)-4-hydroxypiperidin-1-yl)-chroman-4,7-diol]", "values": [{"measurement": "Ratio [^3H]Prazosin/[^3H] (+)-(1S, 2S)-1-(4-hydroxy-phenyl)-2-(4-hydroxy-4-phenylpiperidino)-1-propanol", "setting": "[1]", "result": "≧555"}, {"measurement": "IC50", "setting": "α1-adrenergic receptor", "result": "> 10", "unit": "µM"}]}
{"smiles": "Oc1ccc2c(c1)OCC(N1CCC(O)(c3ccc(F)cc3)CC1)[C@H]2O", "note": "(stereo in doubt)", "values": [{"measurement": "melting point", "result": "159 to 160", "unit": "°C"}]}
